Test results taken from patent US8318781B2, “G-protein-conjugated receptor agonist” (Japan Science and Technology Agency, priority 2007, dated 2012).
Read-outs that look alike come from different tables or passages of the source.

How the values were obtained:
human GPR120 (hGPR120) [1] = molecular target: T1, human GPR120 (hGPR120) (Homo sapiens, UniProt Q5NUL3); assay: Determination of intracellular Ca2+ concentration (FLIPR), cell line GPR120/Flp-in; type: cell-based
T1 construct: expressed in transfected cells; doxycycline-inducible expression vector
T1 sequence (Q5NUL3 1-361): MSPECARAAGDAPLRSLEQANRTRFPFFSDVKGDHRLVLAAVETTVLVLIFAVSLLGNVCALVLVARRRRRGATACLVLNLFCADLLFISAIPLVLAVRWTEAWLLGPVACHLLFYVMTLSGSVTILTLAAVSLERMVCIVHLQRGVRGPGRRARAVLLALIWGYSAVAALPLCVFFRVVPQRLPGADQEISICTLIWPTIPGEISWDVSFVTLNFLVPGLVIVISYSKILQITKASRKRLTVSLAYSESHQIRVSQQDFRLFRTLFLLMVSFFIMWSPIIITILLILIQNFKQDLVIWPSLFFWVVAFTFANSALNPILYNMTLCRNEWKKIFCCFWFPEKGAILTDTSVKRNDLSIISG

human GPR40 (hGPR40) = molecular target: T2, human GPR40 (hGPR40) (Homo sapiens, UniProt O14842); assay: Determination of intracellular Ca2+ concentration (FLIPR), cell line TXGPR40; type: cell-based
T2 construct: expressed in transfected cells; doxycycline-inducible expression vector

human GPR120 (hGPR120) [2] = molecular target: T1, human GPR120 (hGPR120); assay: Determination of intracellular Ca2+ concentration (FLIPR), cell line TXGPR120; type: cell-based; conditions: TXGPR120 cells, maximum fluorescence intensity vs ligand concentration; read-out: [Ca^2+]/GPR120 pEC50 (converted)
[3] = system: GLP-1 (Glucagon-Like Peptide) release; assay: GLP-1 (glucagon-like peptide) release test in mice; type: in vivo; conditions: C57BL/6J mice; for Average GLP-1 concentration: given into the colon by catheter, portal vein blood after 15 minutes, ELISA, NCG21 suspension in PEG at 100 mmol/g body weight; for increase of GLP-1 concentration in the portal blood relative to control DMSO: portal blood 15 minutes after colonic administration
Method: C57BL/6J mice (8 weeks old) were anesthetized with Nembutal (pentobarbital sodium) (60 mg/kg body weight), a catheter was inserted into the colon through the celiotomy, and the solution of the test compound was administered through the catheter (NCG21 as a suspension in PEG at 100 mmol/g body weight, at a rate of 100 μl/min). After 15 minutes, a blood sample was taken from the portal vein, centrifuged at 8000 rpm for 10 minutes, and the supernatant was stored at −80° C. GLP-1 (ng/mL) was determined using ELISA kit (Wako Pure Chemical Industries, Ltd.) within the next day. Each group consists of 12 mice, except that 11 mice were used for NCG21.

T2 sequence (O14842 whole entry): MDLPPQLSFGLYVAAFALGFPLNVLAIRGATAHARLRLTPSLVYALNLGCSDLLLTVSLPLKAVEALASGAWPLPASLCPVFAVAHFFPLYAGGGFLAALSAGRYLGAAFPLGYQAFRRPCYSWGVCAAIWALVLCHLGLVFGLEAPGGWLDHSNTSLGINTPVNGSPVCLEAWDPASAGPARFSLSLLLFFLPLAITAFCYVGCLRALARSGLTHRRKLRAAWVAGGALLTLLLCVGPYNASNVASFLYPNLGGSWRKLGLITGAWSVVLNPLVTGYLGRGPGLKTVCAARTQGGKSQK

SMILES | EC50 (human GPR120 (hGPR120) [1]) [µM] | melting point [°C] | EC50 (human GPR40 (hGPR40)) [µM] | EC50 (human GPR120 (hGPR120) [2]) [µM] | EC50 (human GPR120 (hGPR120) [1]; GPR120/Flp-in cells, maximum fluorescence intensity vs ligand concentration, read-out: [Ca^2+]/GPR120/Flp-In pEC50 (converted)) [µM] | Average GLP-1 concentration [3] [ng/mL] | increase of GLP-1 concentration in the portal blood relative to control DMSO [3] [times] | EC50 (human GPR40 (hGPR40); TXGPR40 cells, maximum fluorescence intensity vs ligand concentration, read-out: [Ca^2+]/GPR40 pEC50 (converted)) [µM]
O=C(O)CCCCc1ccc(OCCN(c2ccccc2)c2ccccn2)cc1 [NCG23, 5-{4-[2-(2-phenylpyridinylamino)ethoxy]phenyl}pentanoic acid] | 9.12 | 74 to 75 | 7.76 | – | – | – | – | –
O=C(O)CCCc1ccc(OCCN(c2ccccc2)c2ccccn2)cc1 [NCG21] | – | 98 to 99 | – | 2.88 | 1.26 | 4.02 | 2.5 | 18.6
CC/C=C\C/C=C\C/C=C\CCCCCCCC(=O)O [LA, cis-α-linolenic acid, reference compound] | – | – | – | – | – | 3.87 | 2.4 | –
